System: human three-dimensional cultured epidermis model
Experiment: Skin irritation of fatty acid alkali metal salts, OECD TG439 (Experimental Example 3)
Format: cell-based
Settings: 0.1 M fatty acid aqueous solution, 25 μL, 15 minutes exposure, N=3; ≤50% viability irritating
Experimental: The skin irritation of alkali metal salts of various fatty acids (potassium laurate, potassium myristate, potassium palmitate, and potassium oleate) was evaluated by the following method based on OECD Test Guideline TG439. […]

## CCCCCCCCCCCC(=O)[O-].[K+] [lauric acid salt, potassium laurate]
  Skin irritation determination from cell viability (FIG. 3): irritating
